Assays:
[1] = system: A2780 Ovarian Cancer Cells; assay: Cell cycle arrest and annexin V FACs analysis, A2780; format: cell-based; conditions: 1 μM, FIG. 12
From the text: For controls, there is no cell surface expression as indicated by a lack of a peak in the M2 region.

Liver sulphatase = target: T1, Liver sulphatase (Mus musculus, UniProt P50427); assay: Liver sulphatase activity in nude mice; format: in vivo; conditions: 20 mg/kg p.o, 3 weeks
T1 construct: from tissue; host or cells: liver of ICRF nude (nu/nu) mice
T1 sequence (P50427 23-624): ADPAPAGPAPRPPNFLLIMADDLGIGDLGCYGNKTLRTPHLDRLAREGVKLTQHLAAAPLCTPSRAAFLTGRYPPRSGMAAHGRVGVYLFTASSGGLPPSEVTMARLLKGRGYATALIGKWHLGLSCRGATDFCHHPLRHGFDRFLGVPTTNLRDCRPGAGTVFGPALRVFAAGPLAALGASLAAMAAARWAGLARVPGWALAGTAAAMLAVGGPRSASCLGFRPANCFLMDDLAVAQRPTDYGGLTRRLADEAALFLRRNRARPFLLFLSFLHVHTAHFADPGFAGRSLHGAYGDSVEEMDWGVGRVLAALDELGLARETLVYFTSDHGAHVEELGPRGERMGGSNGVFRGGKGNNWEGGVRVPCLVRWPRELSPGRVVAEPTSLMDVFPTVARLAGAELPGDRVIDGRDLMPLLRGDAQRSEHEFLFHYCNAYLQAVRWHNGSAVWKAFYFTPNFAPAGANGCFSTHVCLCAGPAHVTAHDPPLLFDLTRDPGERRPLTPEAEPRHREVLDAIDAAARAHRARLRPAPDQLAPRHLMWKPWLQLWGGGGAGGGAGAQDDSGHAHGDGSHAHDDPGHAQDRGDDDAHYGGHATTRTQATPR
Method: Adult female ICRF nude (nu/nu) mice were injected with 10×10^6 MCF-7 cells/0.1 ml Matrigel s.c and tumour growth was monitored weekly. When tumours reached 100-150 mm^3 in volume, the mice were divided into the following groups: […]

Tubulin = assay: Inhibition of taxol-induced microtubule polymerization (turbidity at 350 nm); format: biochemical; conditions: 20 μM, tubulin 1 mg/ml, FIG. 3
Method: The ability of drugs to inhibit taxol-induced polymerisation of tubulin was measured by turbidity at 350 nm. Tubulin (Cryoskeleton Inc., Denver, Colo.), at a final concentration of 1 mg/ml was incubated at 32° C. in G-PEM buffer [80 mM piperazine-N,N′-bis (2-ethane sulfonic acid) sequisodium salt, 1 mM MgCl2, 1 mM EGTA and 1 mM GTP (pH 6.8)] in the presence of taxol with or without estrone derivatives [20 μM].
STX641 is thought to act as an anti-microtubule agent, i.e. to disrupt microtubule function. To show this, tubulin was incubated in the presence of taxol (a compound known to promote tubulin polymerisation). Taxol induced efficient in vitro microtubule assembly as reflected in the increase in turbidity as measured at 350 nm.

Human Dermal Fibroblasts = assay: 96 well plate MTS proliferation assay, Human Dermal Fibroblasts; format: cell-based; conditions: Fibroblast, read-out: mean inhibition of three wells +/-Sds
From the text: Human Dermal Fibroblasts; 96 well plate MTS proliferation assay, mean inhibition of three wells +/−Sds.

[2] = system: Human Umbilical Vein Cells; assay: 96 well plate MTS proliferation assay, Human Umbilical Vein Cells; format: cell-based; conditions: read-out: mean inhibition of three wells +/-Sds
From the text: Human Umbilical Vein Cells; 96 well plate MTS proliferation assay, mean inhibition of three wells +/−Sds.

Compound	G2/M arrest ([1]; 24 hours)	annexin V staining (apoptotic marker), FACs [1]	Liver sulphatase activity inhibition (Liver sulphatase)	inhibition of taxol-induced polymerisation of tubulin (Tubulin)	inhibition at 0.05 µM (Human Dermal Fibroblasts; 0.05 μM)	inhibition at 0.1 µM (Human Dermal Fibroblasts; 0.10 μM)	inhibition at 1 µM (Human Dermal Fibroblasts; 1.00 μM)	inhibition at 5 µM (Human Dermal Fibroblasts; 5.00 μM)	inhibition at 0.05 µM ([2]; 0.05 μM)	inhibition at 0.1 µM ([2]; 0.10 μM)	inhibition at 1 µM ([2]; 1.00 μM)	inhibition at 5 µM ([2]; 5.00 μM)
COc1cc2c(cc1OS(N)(=O)=O)CCC1C2CC[C@@]2(C)C1CC[C@@H]2CC#N (stereo in doubt) [Compound 33, Sulfamic acid 17-cyanomethyl-2-methoxy-13-methyl-7,8,9,11,12,13,14,15,16,17-decahydro-6H-cyclopenta[a]phenanthren-3-yl ester]	G2/M arrest	marked increase in staining	nearly completely inhibited	effectively blocked tubulin assembly								
COc1cc2c(cc1OS(N)(=O)=O)CCC1C2CC[C@@]2(C)C1CC[C@@H]2OS(N)(=O)=O (stereo partly shown) [STX 140, reference compound]			nearly completely inhibited		0%	2%	9%	18%	7%	18%	59%	49%

— patent US7893284B2 (Sterix Limited, priority 2004, dated 2011)
